# From patent US20110136727A1, “Compositions and methods for rapid selection of pathogen binding agents” (priority 2009, published 2011)
# Where a SMILES comes first, the peptide text is derived from it.
# Test system: E. coli O111:B4
# Assay: LPS competition assay on random-sequence peptide microarray (binding of fluorescently labeled bacteria with and without excess free LPS)
# Details: fluorescent intensity of SYTO 9 labeled E. coli O111:B4 binding to the arrayed peptide without vs with excess non-labeled LPS of the same strain
# Method: FIG. 2. Schematic representation of the bacterial binding assay. PEG3,400 linker modified random sequence peptide microarrays were incubated (FIG. 2A) with fluorescently labeled bacteria and (FIG. 2B) with bacteria in presence of excess free LPS.
# Microarray screening. Aliquots of the bacterial cultures were centrifuged to isolate the cells and were washed twice with an equal volume of PBS buffer (pH 7.2). After each wash, bacteria were resuspended and centrifuged. Cells were fluorescently stained with SYTO 9 green-fluorescent cell-permeable nucleic acid dye (Molecular Probes, Eugene, Oreg.). Dye was added to a 500 microliter suspension of bacteria at a concentration of 20 μM in PBS buffer and shaken for 1 hr at 37 degrees Centigrade. After incubation, the cell suspension was centrifuged, isolated, and washed twice with 1 ml PBS buffer. […] Each array was equipped with an Agilent hybridization chamber, and then 450 microliter solution of E. coli in PBS buffer supplemented with 0.03% FBS was added. The arrays were gently shaken on a platform for 1 hr at 37 degrees Centigrade temperature. After incubation, the hybridization chamber was removed, and unbound cells were washed away from the array by dipping it into a 50 ml solution of the hybridization buffer. This step was repeated twice, and the buffer was changed between washings. A final wash with nanopure water was used to remove salts from the array. Slides were then briefly centrifuged at 1500 rpm for 2 min to dry the arrays.
# Data analysis. The arrays were scanned using a laser scanner (PERKIN-ELMER PROSCANARRAY HT) and quantified using GENEPIX PRO6.0 (Molecular Devices, Inc.) in order to determine the fluorescence intensity of each probe and identify its corresponding peptide sequence. A statistical comparison of microarray data was done with GENESPRING GX 7.3 (AGILENT, INC, Palo Alto, Calif., USA) by importing the image-processed data from GENEPIX PRO6.0. Median signal intensities were used in the calculations. For statistical comparisons, each slide was normalized to 50th percentile. Also, measurements of less than 0.01 were set to 0.01. Results were represented on a heatmap in order to be able to compare the difference in intensities with and without excess LPS.
# LPS competition assay. Since approximately 90% of bacterial surface is comprised of LPS it was expected that bacteria will bind to random peptide microarray mostly through LPS. […] Same number of cells stained with SYTO-9® was used to probe the microarrays with and without excess non-labeled LPS from the same strain (FIG. 2).
row,Compound,Ratio ECO/(ECO + LPS)
1,1 (WWRRKKWHKHKRKHPRFGSC) [compound 1],18.76
2,2 (HWKRRHKHKWPKRHPHKGSC) [compound 2],13.22
3,3 (HWKRHHRPKHKHHRHKHGSC) [compound 3],11.48
4,4 (HFHHWKWKHHHHRHRRFGSC) [compound 4],11.28
5,5 (WKKKRKHRHKKHWHPWRGSC) [compound 5],10.3
6,6 (RHWRKPRKWHKKWPPHRGSC) [compound 6],9.881
7,7 (WKRPWHRWHPKRRKWRHGSC) [compound 7],9.611
8,8 (WHHWFHHKKKKPWWKKKGSC) [compound 8],8.832
9,9 (HFRKWHKRRWKHHKKWKGSC) [compound 9],8.435
10,10 (HPWWWHHKKRRHHKHKKGSC) [compound 10],5.345
11,11 (PWWKWRKRKHPKKHHKRGSC) [compound 11],4.687
12,12 (WKWKRHWKWPHRRKHFFGSC) [compound 12],4.576
13,13 (WHRKFFRWRFHRHKKHKGSC) [compound 13],4.547
14,14 (HRKRPKRHHKRHWPRWKGSC) [compound 14],4.429
15,15 (KKFHPHFKPWHFRHKKPGSC) [compound 15],4.303
16,16 (KHPFWHPHRRHKKKRWFGSC) [compound 16],4.283
17,17 (WHHKWRFWKHFRHKRHFGSC) [compound 17],4.216
18,18 (SIADIHKRKFRVRRKHIGSC) [compound 18],4.04
19,19 (PWKFHRHWHHHKHWKWKGSC) [compound 19],3.644
20,20 (HHWWRKRRRKRHRKHWKGSC) [compound 20],3.527
21,21 (RWQKKVKMKRDHVYFRMGSC) [compound 21],3.526
22,22 (RWFPKKHHHRWRKWWKKGSC) [compound 22],3.506
23,23 (HHHHKRKHFWRPRHPRKGSC) [compound 23],3.493
24,24 (HKRHKKHFKFFRWHRKWGSC) [compound 24],3.428
25,25 (TKRIHKWPQDAYRIRRGGSC) [compound 25],3.355
26,26 (RTYWNYGIMRHNKTRKGGSC) [compound 26],3.331
27,27 (WHWHHWKHKKRRHHWRRGSC) [compound 27],3.261

row,Compound,Ratio ECO/(ECO + LPS)
1,28 (KHWHWHKRKKHHRKFFWGSC) [compound 28],3.0313
2,29 (RKHHKKPHKRKRWKWWPGSC) [compound 29],3.021
3,30 (RFHWKHRRKWKHHHPRRGSC) [compound 30],2.944
4,31 (HWHHRWWHHWKHPHHWRGSC) [compound 31],2.854
5,32 (WKFRHRHHRHHWHKKWKGSC) [compound 32],2.844
6,33 (HRKPKFRHHHFKWKHWKGSC) [compound 33],2.786
7,34 (RRWWRKRFWHHRWHRRKGSC) [compound 34],2.423
8,35 (HRWWFKKKHRFRWWKRWGSC) [compound 35],2.404
9,36 (RFFFHKWRRWRRRKPPRGSC) [compound 36],2.378
10,37 (RWRRHKHFKRPHRKHKRGSC) [compound 37],2.375
11,38 (WWHHKWFKHKKFWRHKFGSC) [compound 38],2.349
12,39 (WKPWFHPRKHHKWRHWHGSC) [compound 39],2.334
13,40 (KHKWWRWHKWHWWFRKHGSC) [compound 40],2.322
14,41 (KWKHHKKFRKRKRHWFHGSC) [compound 41],2.316
15,42 (HWHPRWHKHKFKHWRWHGSC) [compound 42],2.273
16,43 (WRFKHFRWKRFKHHHKKGSC) [compound 43],2.263
17,44 (IYNKRSQVRRKGFKKKYGSC) [compound 44],2.169
18,45 (RKRKWHHPWHWRRKRRWGSC) [compound 45],2.136
19,46 (RHWRPKFRKFRWWRWHHGSC) [compound 46],2.125
20,47 (FHKKRHFKRRHKFWWWRGSC) [compound 47],2.114
21,48 (HKWHRKKFHKHRFKHHKGSC) [compound 48],2.112
22,49 (WFWKHKKWRRHPRKWHWGSC) [compound 49],2.104
23,50 (EPKLWFKPRRGGYRHRHGSC) [compound 50],2.035
24,51 (HRKWHWPWKWPWKRKRWGSC) [compound 51],2.033
25,52 (RPKPHRHWKPKFPHHHWGSC) [compound 52],2.031
26,53 (WRRSTPVGPWTWFGKFLGSC) [compound 53],1.974
27,54 (RRFRHWWRWRKRRRKWRGSC) [compound 54],1.914

# Test system: not listed separately
# Assay: Serum stability (serum incubation and western blot)
# Format: in vitro ADME, human
# Details: human serum, western blot probed with Streptavidin-AlexaFluor 647 (FIG. 7)
# Method: Serum stability of Construct 1. Over the last decade, there was a considerable interest in developing antimicrobial peptides as intravenously administered antibiotics. In this respect, a common criticism of peptide-based drugs has been their susceptibility to endogenous proteases. […] To test the in vitro stability of Construct 1 we used a serum-incubation and western blot analysis. Construct 1 was incubated in fresh human serum at 37° C. and pH=7.4 with a starting concentration of 10 μM. Samples were withdrawn at predetermined time points and each sample diluted 20-fold with loading buffer prior to analysis by western blot (FIG. 7).
row,Compound,"Degradation in human serum, monomeric peptide vs tetravalent PEG scaffold"
1,N=C(N)NCCC[C@H](NC(=O)[C@H](Cc1ccccc1)NC(=O)[C@H](CCCCN)NC(=O)[C@@H]1CCCN1C(=O)[C@H](CCCCN)NC(=O)[C@H](CCCNC(=N)N)NC(=O)[C@@H](N)Cc1c[nH]cn1)C(=O)N[C@@H](Cc1c[nH]cn1)C(=O)N[C@@H](Cc1c[nH]cn1)C(=O)N[C@@H](Cc1c[nH]cn1)C(=O)N[C@@H](Cc1ccccc1)C(=O)N[C@@H](CCCCN)C(=O)N[C@@H](Cc1c[nH]c2ccccc12)C(=O)N[C@@H](CCCCN)C(=O)N[C@@H](Cc1c[nH]cn1)C(=O)N[C@@H](Cc1c[nH]c2ccccc12)C(=O)N[C@@H](CCCCN)C(=O)NCC(=O)N[C@@H](CO)C(=O)N[C@@H](CS)C(=O)O [SEQ ID NO: 33] (H-HRKPKFRHHHFKWKHWKGSC-OH; N-terminus and C-terminus assumed),degraded much faster
